Converted amounts (≈) assume the structure as drawn. Read-outs that look alike come from different tables or passages of the source.
Tests used:
S. pneumoniae = assay: MIC, Gram-positive bacteria: S. pneumoniae; type: cell-based; conditions: Streptococcus pneumoniae, column 10, read-out: Minimal Inhibitory Concentration (MIC) S. pneumoniae
P. aeruginosa ATCC 27853 = assay: MIC, Gram-negative bacteria: P. aeruginosa ATCC 27853; type: cell-based; conditions: Pseudomonas aeruginosa, ATCC27853, read-out: Minimal Inhibitory Concentration (MIC) P. aeruginosa ATCC 27853
E. faecalis = assay: MIC, Gram-positive bacteria: E. faecalis; type: cell-based; conditions: Enterococcus faecalis, column 1, read-out: Minimal Inhibitory Concentration (MIC) E. faecalis
[1] = test system: S. aureus Vat A streptogramin; assay: MIC, Gram-positive bacteria: S. aureus Vat A streptogramin; type: cell-based; conditions: Staphylococcus aureus; Gram-positive; column 5; read-out: Minimal Inhibitory Concentration (MIC) S. aureus Vat A streptogramin
E. faecium ATCC 35667 = assay: MIC, Gram-positive bacteria: E. faecium ATCC 35667; type: cell-based; conditions: Enterococcus faecium, ATCC35667, column 2, read-out: Minimal Inhibitory Concentration (MIC) E. faecium ATCC 35667
E. faecium VRE; vanA = assay: MIC, Gram-positive bacteria: E. faecium VRE; vanA; type: cell-based; conditions: Enterococcus faecium, column 3, read-out: Minimal Inhibitory Concentration (MIC) E. faecium VRE
H. influenzae ATCC 49247 = assay: MIC, Gram-negative bacteria: H. influenzae ATCC 49247; type: cell-based; conditions: Haemophilus influenzae, ATCC49247, read-out: Minimal Inhibitory Concentration (MIC) H. influenzae ATCC 49247
Gram-Negative Organisms = assay: microbe, parasite or virus in culture; type: cell-based
[2] = test system: S. aureus Linezolid-resistant; cfr; assay: MIC, Gram-positive bacteria: S. aureus Linezolid-resistant; cfr; type: cell-based; conditions: Staphylococcus aureus, column 9, read-out: Minimal Inhibitory Concentration (MIC) S. aureus Linezolid-resistant
[3] = test system: large subunit of the E. coli ribosome; assay: cryo-EM structure bound to ribosome; type: binding; conditions: 2.8 Angstrom resolution cryo-EM; isoquinoline sidechain reaches into the P-site
Source text: FIGS. 7A-7B. […] FIG. 7B depicts the structure of SAO110224.

S. aureus = assay: MIC, Gram-positive bacteria: S. aureus (strains not named); type: cell-based; conditions: Staphylococcus aureus, read-out: Minimal Inhibitory Concentration (MIC) S. aureus
[4] = test system: K. pneumoniae multidrug-resistant; assay: MIC, Gram-negative bacteria: K. pneumoniae multidrug-resistant; type: cell-based; conditions: Klebsiella pneumoniae, read-out: Minimal Inhibitory Concentration (MIC) K. pneumoniae multidrug-resistant
[5] = test system: P. aeruginosa MDR clinical isolate; assay: MIC, Gram-negative bacteria: P. aeruginosa MDR clinical isolate; type: cell-based; conditions: Pseudomonas aeruginosa, read-out: Minimal Inhibitory Concentration (MIC) P. aeruginosa MDR clinical isolate
[6] = Acinetobacter baumannii, ATCC19606, read-out: Minimal Inhibitory Concentration (MIC), A. baumannii ATCC 19606
[7] = Escherichia coli, ATCC25922, read-out: Minimal Inhibitory Concentration (MIC), E. coli ATCC 25922
[8] = Escherichia coli, read-out: Minimal Inhibitory Concentration (MIC), E. coli BAS2006, OMP C, OMP F
[9] = Escherichia coli, read-out: Minimal Inhibitory Concentration (MIC), E. coli olC efflux defective
[10] = Escherichia coli, read-out: Minimal Inhibitory Concentration (MIC), E. coli permeability mutant BAS1314, IMP4213ZAB::TN10
[11] = Escherichia coli, read-out: Minimal Inhibitory Concentration (MIC), E. coli ΔompC768, KanR insert
[12] = Klebsiella pneumoniae, ATCC43816, read-out: Minimal Inhibitory Concentration (MIC), K. pneumoniae ATCC 43816
[13] = first unnamed S. aureus column (c4)
[14] = fourth unnamed S. aureus column (c8)
[15] = second unnamed S. aureus column (c6)
[16] = third unnamed S. aureus column (c7)

SMILES	MIC (S. pneumoniae) [µg/mL]	MIC (P. aeruginosa ATCC 27853) [µg/mL]	MIC (E. faecalis) [µg/mL]	MIC [1] [µg/mL]	MIC (E. faecium ATCC 35667) [µg/mL]	MIC (E. faecium VRE; vanA) [µg/mL]	MIC (H. influenzae ATCC 49247) [µg/mL]	MIC (Gram-Negative Organisms; [6]) [µg/mL]	MIC (Gram-Negative Organisms; [7]) [µg/mL]	MIC (Gram-Negative Organisms; [8]) [µg/mL]	MIC (Gram-Negative Organisms; [9]) [µg/mL]	MIC (Gram-Negative Organisms; [10]) [µg/mL]	MIC (Gram-Negative Organisms; [12]) [µg/mL]	MIC [2] [µg/mL]	MIC (S. aureus; [13]) [µg/mL]	MIC (S. aureus; [14]) [µg/mL]	MIC (S. aureus; [15]) [µg/mL]	MIC (S. aureus; [16]) [µg/mL]	MIC [4] [µg/mL]	MIC [5] [µg/mL]	further results
CC1=C\[C@@H](O)CC(=O)Cc2nc(co2)C(=O)N2CCC[C@@H]2C(=O)O[C@H]([C@H](C)COC(=O)Nc2cc3ccccc3cn2)[C@H](C)/C=C/C(=O)NC\C=C\1 [SA0110224]	16 (≈ 22.4 µM)	> 64	> 64	16 (≈ 22.4 µM)	4 (≈ 5.6 µM)	8 (≈ 11.2 µM)	2 (≈ 2.8 µM)	> 64	> 64	8 (≈ 11.2 µM)	1 (≈ 1.4 µM)	1 (≈ 1.4 µM)	> 64	> 64	4 (≈ 5.6 µM)	4 (≈ 5.6 µM)	4 (≈ 5.6 µM)	8 (≈ 11.2 µM)	> 64	> 64	MIC (Gram-Negative Organisms; [11]): > 64 µg/mL; binding to ribosome seen in cryo-EM structure [3]: bound to large subunit of the E. coli ribosome
CC1=C\[C@@H](O)CC(=O)Cc2nc(co2)C(=O)N2CCC[C@@H]2C(=O)O[C@H]([C@@H](C)COC(=O)Nc2ccccc2)[C@H](C)/C=C/C(=O)NC\C=C\1 [SA0110043]	16 (≈ 24.1 µM)	> 64	> 64	> 64	16 (≈ 24.1 µM)	64 (≈ 96.6 µM)	32 (≈ 48.3 µM)	> 64	> 64	16 (≈ 24.1 µM)	2 (≈ 3.02 µM)	8 (≈ 12.1 µM)	> 64	> 64	32 (≈ 48.3 µM)	32 (≈ 48.3 µM)	32 (≈ 48.3 µM)	64 (≈ 96.6 µM)	> 64	> 64	
CC1=C\[C@@H](O)CC(=O)Cc2nc(co2)C(=O)N2CCC[C@@H]2C(=O)O[C@H]([C@@H](C)COC(=O)Nc2ccccn2)[C@H](C)/C=C/C(=O)NC\C=C\1 [SA0110120]	16 (≈ 24.1 µM)	> 64	> 64	> 64	32 (≈ 48.2 µM)	64 (≈ 96.4 µM)	32 (≈ 48.2 µM)	> 64	> 64	32 (≈ 48.2 µM)	4 (≈ 6.03 µM)	8 (≈ 12.1 µM)	> 64	> 64	64 (≈ 96.4 µM)	32 (≈ 48.2 µM)	64 (≈ 96.4 µM)	> 64	> 64	> 64	
CC1=C\[C@@H](O)C[C@@H](O)Cc2nc(co2)C(=O)N[C@H](C)C(=O)O[C@H](C(C)C)[C@H](C)/C=C/C(=O)NC\C=C\1 [madumycin II, Madumycin II, reference compound]	4 (≈ 7.94 µM)	> 64	> 64	> 64	0.5 (≈ 0.993 µM)	8 (≈ 15.9 µM)	1 (≈ 1.99 µM)	> 64	> 64	1 (≈ 1.99 µM)	2 (≈ 3.97 µM)	0.5 (≈ 0.993 µM)	> 64	> 64	8 (≈ 15.9 µM)	8 (≈ 15.9 µM)	8 (≈ 15.9 µM)	16 (≈ 31.8 µM)	> 64	> 64	
CC1=C\[C@@H](O)CC(=O)Cc2nc(co2)C(=O)N2CCC[C@@H]2C(=O)O[C@H]([C@@H](C)COC(=O)Nc2ccc(C)cc2)[C@H](C)/C=C/C(=O)NC\C=C\1 [SA0110037]	16 (≈ 23.6 µM)	> 64	> 64	> 64	16 (≈ 23.6 µM)	64 (≈ 94.6 µM)	> 64	> 64	> 64	16 (≈ 23.6 µM)	4 (≈ 5.91 µM)	8 (≈ 11.8 µM)	> 64	> 64	32 (≈ 47.3 µM)	16 (≈ 23.6 µM)	32 (≈ 47.3 µM)	64 (≈ 94.6 µM)	> 64	> 64	
CC1=C\[C@@H](O)CC(=O)Cc2nc(co2)C(=O)N2CCC[C@@H]2C(=O)O[C@H]([C@@H](C)COC(=O)Nc2ccc(Br)nc2)[C@H](C)/C=C/C(=O)NC\C=C\1 [SA0110082]	8 (≈ 10.8 µM)	> 64	> 64	> 64	32 (≈ 43.1 µM)	> 64	64 (≈ 86.2 µM)	> 64	> 64	32 (≈ 43.1 µM)	4 (≈ 5.39 µM)	16 (≈ 21.5 µM)	> 64	> 64	> 64	32 (≈ 43.1 µM)	> 64	> 64	> 64	> 64	
CC1=C\[C@@H](O)CC(=O)Cc2nc(co2)C(=O)N2CCC[C@@H]2C(=O)O[C@H]([C@H](C)COC(=O)Nc2ccc(C)cc2)[C@H](C)/C=C/C(=O)NC\C=C\1 [SA0110184]	32 (≈ 47.3 µM)	> 64	> 64	> 64	16 (≈ 23.6 µM)	16 (≈ 23.6 µM)	16 (≈ 23.6 µM)	> 64	> 64	> 64	4 (≈ 5.91 µM)	2 (≈ 2.96 µM)	> 64	> 64	16 (≈ 23.6 µM)	16 (≈ 23.6 µM)	16 (≈ 23.6 µM)	32 (≈ 47.3 µM)	> 64	> 64	MIC (Gram-Negative Organisms; [11]): > 64 µg/mL
CC1=C\[C@@H](O)CC(=O)Cc2nc(co2)C(=O)N2CCC[C@@H]2C(=O)O[C@H]([C@@H](C)CO)[C@H](C)/C=C/C(=O)NC\C=C\1 [SA0110026]	64 (≈ 118 µM)	> 64	> 64	> 64	64 (≈ 118 µM)	> 64	64 (≈ 118 µM)	> 64	> 64	64 (≈ 118 µM)	32 (≈ 58.9 µM)	64 (≈ 118 µM)	> 64	> 64	> 64	> 64	> 64	> 64	> 64	> 64	
